The values that follow come from article PMC9311865, “Covalent Allosteric Inhibitors of Akt Generated Using a Click Fragment Approach” (Chemmedchem, 2022).

One data set concerns AN3CA cells. Put plainly: CellTiter-Glo Luminescent Cell Viability Assay, AN3CA. It is filed as cell-based. To be noted: Homo sapiens, AN3-CA; endometrium cancer cell line; mean ± SD, n=3; read-out: EC50 AN3CA. In general terms: In ATP-based viability assays light output follows the ATP content of the culture.
Data set [1] deals with T1, Akt1 (Homo sapiens, UniProt P31749). Put plainly: HTRF KinEASE assay, IC50 against Akt1. To be noted: mean ± SD, n=3. On the technique in general: In TR-FRET formats the signal depends on donor and acceptor labels being close together.
T1 sequence (P31749 whole entry): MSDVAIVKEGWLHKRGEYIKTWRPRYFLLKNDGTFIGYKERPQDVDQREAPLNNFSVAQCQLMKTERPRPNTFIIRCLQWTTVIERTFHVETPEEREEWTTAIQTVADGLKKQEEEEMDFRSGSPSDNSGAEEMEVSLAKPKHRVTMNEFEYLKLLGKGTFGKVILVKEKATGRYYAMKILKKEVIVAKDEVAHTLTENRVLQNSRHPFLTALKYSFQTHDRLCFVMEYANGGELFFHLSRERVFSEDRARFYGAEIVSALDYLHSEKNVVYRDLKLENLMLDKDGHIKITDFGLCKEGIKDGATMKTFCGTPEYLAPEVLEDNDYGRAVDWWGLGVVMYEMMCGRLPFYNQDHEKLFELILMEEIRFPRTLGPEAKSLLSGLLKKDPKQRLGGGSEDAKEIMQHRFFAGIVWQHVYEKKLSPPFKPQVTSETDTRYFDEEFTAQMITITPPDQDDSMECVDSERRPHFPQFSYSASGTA
Description: (§1) The homogeneous time‐resolved fluorescence (HTRF®) KinEASE™ assay by Cisbio was used to determine the half‐maximal inhibitory concentration (IC50) values of the synthesised compounds against Akt1, Akt2 and Akt3 (Table 1).[26]
(§2) The HTRF® KinEASE™ assay (Cisbio) was used to determine the IC 50 values of the synthesised
(§3) al. (Akt2 and Akt3).1,5 The three wild-type Akt isoforms used were acquired from ProQinase.
The target of another data set is T2, Akt2 (Homo sapiens, UniProt P31751).
T2 construct: purchased ProQinase
T2 sequence (P31751 whole entry): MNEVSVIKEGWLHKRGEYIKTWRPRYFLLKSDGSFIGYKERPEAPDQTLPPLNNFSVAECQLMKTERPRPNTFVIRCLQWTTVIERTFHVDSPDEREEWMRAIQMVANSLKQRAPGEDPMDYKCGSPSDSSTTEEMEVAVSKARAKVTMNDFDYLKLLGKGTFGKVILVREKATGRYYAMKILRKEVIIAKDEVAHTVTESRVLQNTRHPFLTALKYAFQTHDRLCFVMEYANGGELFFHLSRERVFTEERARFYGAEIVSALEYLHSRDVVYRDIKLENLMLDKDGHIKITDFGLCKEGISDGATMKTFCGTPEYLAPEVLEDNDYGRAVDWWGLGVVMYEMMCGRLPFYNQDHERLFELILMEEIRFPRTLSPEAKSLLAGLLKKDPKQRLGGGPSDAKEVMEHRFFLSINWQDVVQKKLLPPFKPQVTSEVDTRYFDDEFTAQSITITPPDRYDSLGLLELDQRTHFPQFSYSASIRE
Put plainly: HTRF KinEASE assay, IC50 against Akt2. The format is biochemical. As to conditions: wild-type Akt2; mean ± SD, n=3.

The next data set has as its system KU-19-19 cells. Put plainly: CellTiter-Glo Luminescent Cell Viability Assay, KU-19-19. The format is cell-based. As to conditions: Homo sapiens, bladder cancer cell line, Akt1 E17K/E49K, mean ± SD, n=3. As to the method: The potential in vitro antiproliferative activity of the synthesised target compounds was investigated against a number of cancer cell lines by the CellTiter‐Glo® Luminescent Cell Viability Assay (from Promega Corporation, USA, catalogue number: G7570). The half‐maximal effective concentrations (EC50) of these compounds were determined against the AN3‐CA, BT‐474, KU‐19‐19, MCF‐7, T‐47D and ZR‐75‐1 cell lines originating from various tissues, i. e., breast, endometrium and bladder (Table S1). […]
The CellTiter-Glo® Luminescent Cell Viability Assay from Promega was used for the cellular assays, performed as explained by Weisner et al.7,8 Information on the cancer cell lines are given in Table S1, the control compounds used in Figure S3 and the results in Table S2.
Table S1. The cell lines used for the cellular assays, including what cancer type they are predominantly found in, and where the cell lines were acquired form.
Cell line Cancer type Acquired from AN3CA Endometrium ATCC (provided by Prof. Jan G. Hengstler at Leibniz-Institut für Arbeitsforschung Dortmund)
KU-19-19 Bladder Deutsche Sammlung von Mikroorganismen und Zellkulturen […]
BT-474 CLS Cell Lines Service (provided by Prof. Jan G. Hengstler at […] Leibniz-Institut für Arbeitsforschung Dortmund)

Another data set relates to MCF-7 cells. Put plainly: CellTiter-Glo Luminescent Cell Viability Assay, MCF-7. It is filed as cell-based. To be noted: Homo sapiens, MCF7; breast cancer cell line; mean ± SD, n=3; read-out: EC50 MCF‐7.
A further data set deals with T47D cells. Put plainly: CellTiter-Glo Luminescent Cell Viability Assay, T47D. To be noted: Homo sapiens, breast cancer cell line, mean ± SD, n=3. The format is cell-based.
Another data set has as its system ZR-75-1 cells. Put plainly: CellTiter-Glo Luminescent Cell Viability Assay, ZR-75-1. As to conditions: Homo sapiens, ZR-75-1; breast cancer cell line; mean ± SD, n=3; read-out: EC50 ZR‐75‐1. The format is cell-based.
Another data set concerns the target Akt3 (Homo sapiens, UniProt Q9Y243). Put plainly: HTRF KinEASE assay, IC50 against Akt3.
The next data set deals with BT-474 cells. Put plainly: CellTiter-Glo Luminescent Cell Viability Assay, BT-474. It is filed as cell-based. As to conditions: Homo sapiens, BT-474; breast cancer cell line; mean ± SD, n=3; read-out: EC50 BT‐474.
The target of data set [2] is T1, Akt1. Put plainly: Kinetic analysis with HTRF KinEASE (time-dependent IC50), kinetic parameters of inactivation. As to conditions: mean ± SD, n=3; for Ki: inhibition constant of inactivation. Further details: purchased ProQinase. It is filed as biochemical.
Description: The kinetic parameters of inactivation, namely the inhibition constant (K I) and the rate constant of enzyme inactivation (k inact), are therefore preferentially used to describe irreversible inhibitors.[28] K I is defined as the concentration of inhibitor required for half of the maximum potential rate of covalent bond formation, while k inact is defined as the maximum potential rate of covalent bond formation.[29] The ratio of k inact over K I, k inact/K I, accounts for both the potency of the inhibitor (K I) and the maximum potential rate of covalent bond formation (k inact) and thus represents the second‐order rate constant describing the efficiency of covalent complex formation.[29] Using a protocol published by Krippendorff et al., K I and k inact can be directly estimated from time‐dependent IC50 determinations by kinetic analysis with HTRF® KinEASE™.[28]
Using a protocol published by Krippendorff et al., KI, kinact and kinact/KI could be directly
estimated from time-dependent IC50 determinations by kinetic analysis with HTRF® KinEASE™,
Data set [3] has as its target T3, wild-type Akt1 (Homo sapiens, UniProt P31749).
T3 construct: made in house
Put plainly: LC-MS identification of covalent binders after co-incubation with Akt1. The format is binding. To be noted: co-incubation with Akt1, Figure S1. The text has this: 2. Evaluation results … 4
4. Molecular Modelling … 57
indicated covalent binding.

The target in data set [4] is T3, wild-type Akt1. Further details: method as in earlier work. As to conditions: ref 6a; cited from earlier work.
Where [5] appears, read: IC50, Akt1, repeated in Table 2 for comparison.

Akt3, sequence (Q9Y243 whole entry): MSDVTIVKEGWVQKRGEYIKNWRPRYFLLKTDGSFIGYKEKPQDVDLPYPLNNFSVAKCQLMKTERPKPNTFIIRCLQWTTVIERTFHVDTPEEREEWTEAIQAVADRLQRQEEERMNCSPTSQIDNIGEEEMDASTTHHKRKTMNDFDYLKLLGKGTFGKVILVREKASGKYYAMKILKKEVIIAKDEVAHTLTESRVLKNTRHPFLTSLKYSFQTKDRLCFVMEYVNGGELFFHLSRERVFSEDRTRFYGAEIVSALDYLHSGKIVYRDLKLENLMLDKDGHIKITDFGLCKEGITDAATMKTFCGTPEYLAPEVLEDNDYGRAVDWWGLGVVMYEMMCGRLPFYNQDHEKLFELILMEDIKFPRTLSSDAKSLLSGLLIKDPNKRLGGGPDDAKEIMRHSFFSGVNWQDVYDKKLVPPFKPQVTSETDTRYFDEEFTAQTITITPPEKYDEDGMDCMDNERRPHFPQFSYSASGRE
T3 sequence (P31749 whole entry): as the sequence (P31749 whole entry) above
Description for Akt2: as §1, §2, §3
Description for Akt3: as §1, §2, §3

One may read the EC50 as the concentration giving half of the maximal effect. In general, IC50 refers to the midpoint of a concentration-inhibition curve. The melting point is the temperature, or range, at which the solid turns liquid. The molecule `C=CC(=O)Nc1cc2c(cc1Cl)[nH]c(=O)n2C1CCN(Cc2ccc(-c3nc4ccccn4c3-c3ccccc3)cc2)CC1` [Compound 12, N ‐(6‐Chloro‐2‐oxo‐3‐{1‐[4‐(3‐phenylimidazo[1,2‐a]pyridin‐2‐yl)benzyl]piperidin‐4‐yl}‐2,3‐dihydro‐1H‐benzo[d]imidazol‐5‐yl)acrylamide] came in with a melting point of 80 to 82 °C. The EC50 in the data set with AN3CA cells was 3570 ± 1220 nM. On Akt1 [1] (setting [5]), 28.6 ± 5.3 nM corresponded to half-maximal inhibition (IC50). At Akt1 [1] (IC50 Akt1, wild-type Akt1), this molecule came in with a concentration for half-maximal inhibition (IC50) of 29 ± 5 nM. In addition, on Akt2, the IC50 was 5590 ± 1520 nM. The molecule also returned an EC50 in the data set on KU-19-19 cells of 23500 ± 6700 nM. Besides, the EC50 in the data set with MCF-7 cells amounted to 4230 ± 2400 nM. Further, the concentration giving a half-maximal response (EC50) with T47D cells turned out to be 1500 ± 903 nM. Besides, the EC50 with ZR-75-1 cells was 227 ± 57 nM. On Akt3, this molecule gave a half-inhibitory concentration (IC50) above 20000 nM. For the same molecule, the 50% effective concentration (EC50) in the data set with BT-474 cells is 3760 ± 1380 nM. Further, on Akt1 [2], the Ki came to 24.7 ± 1.8 nM, the k inact stood at 0.081 ± 0.008 min⁻¹ and the “k inact/K I” value came to 55000 ± 9000 M⁻¹ s⁻¹. Further, at wild-type Akt1 [3], the “covalent binding to Akt1 (mass increase by LC-MS)” value is “covalent binders”.

Take `C=CC(=O)Nc1cccc(-c2cn(C3CCN(Cc4ccc(-c5nc6ccccn6c5-c5ccccc5)cc4)CC3)nn2)c1` [Compound 3, N ‐[3‐(1‐{1‐[4‐(3‐Phenylimidazo[1,2‐a]pyridin‐2‐yl)benzyl]piperidin‐4‐yl}‐1H‐1,2,3‐triazol‐4‐yl)phenyl]acrylamide]: the EC50 in the data set on AN3CA cells turned out to be 4750 ± 1540 nM; in the data set on KU-19-19 cells it was 12400 ± 2880 nM; with MCF-7 cells, 4300 ± 1130 nM; in the data set on T47D cells, 4070 ± 1610 nM; in the data set on ZR-75-1 cells it was 2170 ± 517 nM; in the data set on BT-474 cells, 8270 ± 862 nM. The IC50 against Akt1 [1] (Akt1, repeated in Table 2 for comparison) was 372 ± 48.5 nM; against Akt2, above 20000 nM; at Akt3, above 20000 nM. Also, the “covalent binding to Akt1, previously identified” value on wild-type Akt1 [4] is on record as “covalent binder”. This molecule had a Ki at Akt1 [2] of 497 ± 107 nM. On Akt1 [2], this molecule returned a k inact of 0.071 ± 0.006 min⁻¹. Moreover, the “k inact/K I” value at Akt1 [2] was determined as 2000 ± 1000 M⁻¹ s⁻¹. For the same molecule, the “covalent binding to Akt1 (mass increase by LC-MS)” value at wild-type Akt1 [3] is “quantitative protein labelling”.

For the molecule `C=CC(=O)Nc1ccc2[nH]c(=O)n(C3CCN(Cc4ccc(-c5nc6ccccn6c5-c5ccccc5)cc4)CC3)c2c1` [Compound 11, N ‐(2‐Oxo‐3‐{1‐[4‐(3‐phenylimidazo[1,2‐a]pyridin‐2‐yl)benzyl]piperidin‐4‐yl}‐2,3‐dihydro‐1H‐benzo[d]imidazol‐5‐yl)acrylamide], the melting point lay within 221 to 223 °C. In addition, the concentration giving a half-maximal response (EC50) with AN3CA cells is 1030 ± 210 nM. Also, at Akt1 [1] (setting [5]), the IC50 came out at 34.1 ± 20.4 nM. In addition, half-maximal inhibition against Akt1 [1] (IC50 Akt1, wild-type Akt1) (IC50) required 34 ± 20 nM. In addition, the 50% inhibitory concentration (IC50) against Akt2 was determined as 2560 ± 578 nM. This molecule came in with a concentration giving a half-maximal response (EC50) in the data set on KU-19-19 cells of 12800 ± 1620 nM. Moreover, the EC50 with MCF-7 cells was 1100 ± 689 nM. In addition, in the data set on T47D cells, the EC50 was 364 ± 87 nM. In addition, the half-maximal effective concentration (EC50) in the data set on ZR-75-1 cells was determined as 81 ± 11 nM. In addition, the 50% inhibitory concentration (IC50) against Akt3 was above 20000 nM. For the same molecule, in the data set with BT-474 cells, the 50% effective concentration (EC50) worked out at 971 ± 301 nM. On Akt1 [2], the Ki is 27.2 ± 2.6 nM, the k inact turned out to be 0.069 ± 0.004 min⁻¹ and the “k inact/K I” value was 43000 ± 6000 M⁻¹ s⁻¹. Moreover, at wild-type Akt1 [3], the “covalent binding to Akt1 (mass increase by LC-MS)” value is “covalent binders”.
